Assays:
Assay type in all cases: binding, synthetic construct
protein 18-19 = target: T1, protein 18-19; experiment: X-ray crystal structure ([…] Å) and equilibrium ultrafiltration with γ-[…]-ATP
T1 construct: Kd measured on the N-terminal MBP fusion; crystal structure model residues 9-71

protein 18-19 (D65V) = target: T2, protein 18-19 (D65V); experiment: equilibrium ultrafiltration with γ-[…]-ATP
T2 construct: 80-residue artificial protein as N-terminal MBP fusion

protein 18-19 (N32D) = target: T3, protein 18-19 (N32D); experiment: equilibrium ultrafiltration with γ-[…]-ATP
T3 construct: 80-residue artificial protein as N-terminal MBP fusion

Nc1ncnc2c1ncn2[C@@H]1O[C@H](COP(=O)(O)OP(=O)(O)OP(=O)(O)O)[C@@H](O)[C@H]1O [ATP]
Kd (protein 18-19): 1100 ± 78 nM | Kd (protein 18-19 (D65V)): 640 ± 28 nM | Kd (protein 18-19 (N32D)): 360 ± 12 nM

Source: publication PMC1867856, “Structural Insights into the Evolution of a Non-Biological Protein: Importance of Surface Residues in Protein Fold Optimization” (PLoS ONE, 2007)
